From BigSolDB 2.1

Compound `O=C(O)CCCCCC(=O)O` has a solubility (mole fraction) (in THF, 298.95 K) of 0.191, a solubility (mole fraction) (in THF, 300.55 K) of 0.198 and a solubility (mole fraction) (in THF, 302.15 K) of 0.204. It also gave a solubility (mole fraction) (in THF, 303.65 K) of 0.211, a solubility (mole fraction) (in THF, 305.15 K) of 0.218 and a solubility (mole fraction) (in THF, 307.95 K) of 0.231. The solubility (mole fraction) (in THF, 309.05 K) was 0.235, the solubility (mole fraction) (in THF, 311.75 K) was 0.25 and the solubility (mole fraction) (in THF, 313.75 K) was 0.259. For the same compound, the solubility (mole fraction) (in THF, 315.75 K) was 0.271, the solubility (mole fraction) (in THF, 317.75 K) was 0.282 and the solubility (mole fraction) (in THF, 320.25 K) was 0.296. It also gave a solubility (mole fraction) (in THF, 321.65 K) of 0.306, a solubility (mole fraction) (in THF, 323.05 K) of 0.316 and a solubility (mole fraction) (in diethyl ether, 278.95 K) of 0.0091. The solubility (mole fraction) (in diethyl ether, 281.95 K) was 0.0102, the solubility (mole fraction) (in diethyl ether, 284.65 K) was 0.0112 and the solubility (mole fraction) (in diethyl ether, 287.05 K) was 0.0122. For the same compound, the solubility (mole fraction) (in diethyl ether, 290.05 K) was 0.0137, the solubility (mole fraction) (in diethyl ether, 292.95 K) was 0.0152 and the solubility (mole fraction) (in diethyl ether, 294.75 K) was 0.0165. It also gave a solubility (mole fraction) (in diethyl ether, 296.35 K) of 0.018, a solubility (mole fraction) (in diethyl ether, 299.15 K) of 0.0199 and a solubility (mole fraction) (in diethyl ether, 301.55 K) of 0.0222. For the same compound, the solubility (mole fraction) (in ethanol, 298.45 K) was 0.121, the solubility (mole fraction) (in ethanol, 301.45 K) was 0.131 and the solubility (mole fraction) (in ethanol, 304.25 K) was 0.144. For the same compound, the solubility (mole fraction) (in ethanol, 305.75 K) was 0.151, the solubility (mole fraction) (in ethanol, 307.55 K) was 0.158 and the solubility (mole fraction) (in ethanol, 310.25 K) was 0.172. The solubility (mole fraction) (in ethanol, 312.15 K) was 0.187, the solubility (mole fraction) (in ethanol, 314.85 K) was 0.202 and the solubility (mole fraction) (in ethanol, 316.25 K) was 0.206. For the same compound, the solubility (mole fraction) (in ethanol, 317.95 K) was 0.219, the solubility (mole fraction) (in ethanol, 320.95 K) was 0.235 and the solubility (mole fraction) (in ethanol, 323.55 K) was 0.248. The solubility (mole fraction) (in ethanol, 325.65 K) was 0.267, the solubility (mole fraction) (in ethanol, 327.55 K) was 0.281 and the solubility (mole fraction) (in ethanol, 329.25 K) was 0.294. It also gave a solubility (mole fraction) (in methanol, 300.75 K) of 0.142, a solubility (mole fraction) (in methanol, 302.65 K) of 0.152 and a solubility (mole fraction) (in methanol, 304.15 K) of 0.159. It also gave a solubility (mole fraction) (in methanol, 305.95 K) of 0.171, a solubility (mole fraction) (in methanol, 307.65 K) of 0.18 and a solubility (mole fraction) (in methanol, 310.05 K) of 0.187. The solubility (mole fraction) (in methanol, 312.65 K) was 0.205, the solubility (mole fraction) (in methanol, 314.85 K) was 0.218 and the solubility (mole fraction) (in methanol, 317.85 K) was 0.246. For the same compound, the solubility (mole fraction) (in methanol, 321.35 K) was 0.27, the solubility (mole fraction) (in methanol, 323.75 K) was 0.293 and the solubility (mole fraction) (in methanol, 325.55 K) was 0.309. The solubility (mole fraction) (in methanol, 327.15 K) was 0.324 and the solubility (mole fraction) (in methanol, 328.75 K) was 0.342.
